Assay results: patent publication US9067943B2, “[1,2,3]triazolo[4,5-D]pyrimidine derivatives” (priority 2011, dated 2015)
Where two headings read alike, the source gives them in different places.

Assays:
human CB1 receptors = molecular target: T1, human CB1 receptors (Homo sapiens, UniProt P21554); assay: cAMP assay; format: cell-based
T1 construct: expressed in transfected cells; host or cells: CHO cells
Method: (§1) CHO cells expressing human CB1 or CB2 receptors are seeded 17-24 hours prior to the experiment 50.000 cells per well in a black 96 well plate with flat clear bottom (Corning Costar #3904) in DMEM (Invitrogen No. 31331), 1×HT supplement, with 10% fetal calf serum and incubated at 5% CO2 and 37° C. in a humidified incubator. The growth medium was exchanged with Krebs Ringer Bicarbonate buffer with 1 mM IBMX and incubated at 30° C. for 30 min. Compounds were added to a final assay volume of 100 μl and incubated for 30 min at 30° C. Using the cAMP-Nano-TRF detection kit the assay (Roche Diagnostics) was stopped by the addition of 50 μl lysis reagent (Tris, NaCl, 1.5% Triton X100, 2.5% NP40, 10% NaN3) and 50 μl detection solutions (20 μM mAb Alexa700-cAMP 1:1, and 48 μM Ruthenium-2-AHA-cAMP) and shaken for 2 h at room temperature. The time-resolved energy transfer is measured by a TRF reader (Evotec Technologies GmbH), equipped with a ND:YAG laser as excitation source. The plate is measured twice with the excitation at 355 nm and at the emission with a delay of 100 ns and a gate of 100 ns, total exposure time 10 s at 730 (bandwidth 30 nm) or 645 nm (bandwidth 75 nm), respectively. The FRET signal is calculated as follows: FRET=T730-Alexa730-P(T645-B645) with P=Ru730-B730/Ru645-B645, where T730 is the test well measured at 730 nM, T645 is the test well measured at 645 nm, B730 and B645 are the buffer controls at 730 nm and 645 nm, respectively. cAMP content is determined from the function of a standard curve spanning from 10 μM to 0.1 nM cAMP.
(§2) EC50 values were determined using Activity Base analysis (ID Business Solution, Limited). The EC50 values for a wide range of cannabinoid agonists generated from this assay were in agreement with the values published in the scientific literature.

human CB2 receptors = molecular target: T2, human CB2 receptors (Homo sapiens, UniProt P34972); assay: cAMP assay; format: cell-based
T2 construct: expressed in transfected cells; host or cells: CHO cells
Method: as §1, §2

T1 sequence (P21554 whole entry): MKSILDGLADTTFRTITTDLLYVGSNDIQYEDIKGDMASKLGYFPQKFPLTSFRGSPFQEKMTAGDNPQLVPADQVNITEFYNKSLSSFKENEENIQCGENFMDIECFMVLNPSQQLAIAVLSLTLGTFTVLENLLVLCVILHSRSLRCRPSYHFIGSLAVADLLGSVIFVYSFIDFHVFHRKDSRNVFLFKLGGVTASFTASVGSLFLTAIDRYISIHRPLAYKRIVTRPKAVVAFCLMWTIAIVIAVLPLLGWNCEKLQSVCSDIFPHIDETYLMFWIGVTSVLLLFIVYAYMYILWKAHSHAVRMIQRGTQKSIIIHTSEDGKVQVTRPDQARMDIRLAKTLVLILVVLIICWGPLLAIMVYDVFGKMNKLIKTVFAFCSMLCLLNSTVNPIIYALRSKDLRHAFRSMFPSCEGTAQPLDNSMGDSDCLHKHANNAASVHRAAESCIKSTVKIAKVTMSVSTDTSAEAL
T2 sequence (P34972 whole entry): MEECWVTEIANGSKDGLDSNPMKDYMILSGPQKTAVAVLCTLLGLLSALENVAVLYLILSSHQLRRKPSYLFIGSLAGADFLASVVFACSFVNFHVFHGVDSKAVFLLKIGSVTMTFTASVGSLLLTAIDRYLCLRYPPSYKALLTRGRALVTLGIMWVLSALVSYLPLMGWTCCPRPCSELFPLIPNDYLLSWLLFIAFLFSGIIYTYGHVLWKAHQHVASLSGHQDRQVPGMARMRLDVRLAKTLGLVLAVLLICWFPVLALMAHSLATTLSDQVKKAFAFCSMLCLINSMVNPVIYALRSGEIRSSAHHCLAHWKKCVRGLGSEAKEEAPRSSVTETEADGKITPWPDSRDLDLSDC

| Molecule | EC50 (human CB1 receptors; functional cAMP assay, head printed human CB2 (probably human CB1), read-out: human CB2 EC50) [nM] | EC50 (human CB2 receptors; functional cAMP assay, CHO cells expressing human CB2, read-out: human CB2 EC50) [nM] | EC50 (human CB1 receptors) [nM] | EC50 (human CB2 receptors) [nM] |
| --- | --- | --- | --- | --- |
| 5-tert-Butyl-2-(1-cyclopropyl-1H-tetrazol-5-ylmethyl)-7-(2-oxa-6-aza-spiro[3.3]hept-6-yl)-2H-[1,2,3]triazolo[4,5-d]pyrimidine [Example 105] | > 10000 | 110 | – | – |
| CC(C)(C)c1nc(N2CCOCC2)c2nn(Cc3ccccc3Cl)nc2n1 [Example 1, 5-tert-Butyl-2-(2-chloro-benzyl)-7-morpholin-4-yl-2H-[1,2,3]triazolo[4,5d]pyrimidine] | – | – | > 10000 | 3.3 |
| CC(C)(C)c1nc(N2CCOCC2)c2nn(Cc3ccc(F)cc3Cl)nc2n1 [Example 2, 5-tert-Butyl-2-(2-chloro-4-fluoro-benzyl)-7-morpholin-4-yl-2H-[1,2,3]triazolo[4,5-d]pyrimidine] | – | – | > 10000 | 2.2 |
| CCn1nc2nc(C(C)(C)C)nc(N3CCC(F)(F)C3)c2n1 [Example 3, 5-tert-Butyl-7-(3,3-difluoro-pyrrolidin-1-yl)-2-ethyl-2H-[1,2,3]triazolo[4,5-d]pyrimidine] | – | – | > 10000 | 18.5 |
| COCCn1nc2nc(C(C)(C)C)nc(N3CCC(F)(F)C3)c2n1 [Example 4, 5-tert-Butyl-7-(3,3-difluoro-pyrrolidin-1-yl)-2-(2-methoxy-ethyl)-2H-[1,2,3]triazolo[4,5-d]pyrimidine] | – | – | > 10000 | 8 |
| CC(C)(C)c1nc(N2CCC(F)(F)C2)c2nn(CCO)nc2n1 [Example 5, 2-[5-tert-Butyl-7-(3,3-difluoro-pyrrolidin-1-yl)-[1,2,3]triazolo[4,5-d]pyrimidin-2-yl]-ethanol] | – | – | > 10000 | 64.7 |
| CC(C)(C)c1nc(N2CCC(F)(F)C2)c2nn(CC3CCCCC3)nc2n1 [Example 6, 5-tert-Butyl-2-cyclohexylmethyl-7-(3,3-difluoro-pyrrolidin-1-yl)-2H-[1,2,3]triazolo[4,5-d]pyrimidine] | – | – | 306 | 0.5 |
| CC(C)(C)c1nc(N2CCC(F)(F)C2)c2nn(Cc3cccc(Cl)c3)nc2n1 [Example 7, 5-tert-Butyl-2-(3-chloro-benzyl)-7-(3,3-difluoro-pyrrolidin-1-yl)-2H-[1,2,3]triazolo[4,5-d]pyrimidine] | – | – | > 10000 | 4.1 |
| CC(C)(C)c1nc(N2CCC(F)(F)C2)c2nn(Cc3ccc(Cl)cc3)nc2n1 [Example 8, 5-tert-Butyl-2-(4-chloro-benzyl)-7-(3,3-difluoro-pyrrolidin-1-yl)-2H-[1,2,3]triazolo[4,5-d]pyrimidine] | – | – | > 10000 | 6.5 |
| CC(C)(C)c1nc(N2CCC(F)(F)C2)c2nn(Cc3cccc(Cl)c3Cl)nc2n1 [Example 9, 5-tert-Butyl-2-(2,3-dichloro-benzyl)-7-(3,3-difluoro-pyrrolidin-1-yl)-2H-[1,2,3]triazolo[4,5-d]pyrimidine] | – | – | > 10000 | 3.4 |
| CC(C)(C)c1nc(N2CCC(F)(F)C2)c2nn(Cc3ccc(Cl)cc3Cl)nc2n1 [Example 10, 5-tert-Butyl-2-(2,4-dichloro-benzyl)-7-(3,3-difluoro-pyrrolidin-1-yl)-2H-[1,2,3]triazolo[4,5-d]pyrimidine] | – | – | > 10000 | 4.1 |
| CC(C)(C)c1nc(N2CCC(F)(F)C2)c2nn(Cc3cc(Cl)ccc3Cl)nc2n1 [Example 11, 5-tert-Butyl-2-(2,5-dichloro-benzyl)-7-(3,3-difluoro-pyrrolidin-1-yl)-2H-[1,2,3]triazolo[4,5-d]pyrimidine] | – | – | > 10000 | 1.2 |
| CC(C)(C)c1nc(N2CCC(F)(F)C2)c2nn(Cc3c(Cl)cccc3Cl)nc2n1 [Example 12, 5-tert-Butyl-2-(2,6-dichloro-benzyl)-7-(3,3-difluoro-pyrrolidin-1-yl)-2H-[1,2,3]triazolo[4,5-d]pyrimidine] | – | – | > 10000 | 1.5 |
| CC(C)(C)c1nc(N2CCC(F)(F)C2)c2nn(Cc3ccc(F)cc3Cl)nc2n1 [Example 13, 5-tert-Butyl-2-(2-chloro-4-fluoro-benzyl)-7-(3,3-difluoro-pyrrolidin-1-yl)-2H-[1,2,3]triazolo[4,5-d]pyrimidine] | – | – | > 10000 | 1 |
| CC(C)(C)c1nc(N2CCC(F)(F)C2)c2nn(Cc3c(F)cccc3Cl)nc2n1 [Example 14, 5-tert-Butyl-2-(2-chloro-6-fluoro-benzyl)-7-(3,3-difluoro-pyrrolidin-1-yl)-2H-[1,2,3]triazolo[4,5-d]pyrimidine] | – | – | 65 | 0.5 |
| CC(C)(C)c1nc(N2CCC(F)(F)C2)c2nn(Cc3ccccn3)nc2n1 [Example 15, 5-tert-Butyl-7-(3,3-difluoro-pyrrolidin-1-yl)-2-pyridin-2-ylmethyl-2H-[1,2,3]triazolo[4,5-d]pyrimidine] | – | – | 210 | 0.7 |
| CC(C)(C)c1nc(N2CCC(F)(F)C2)c2nn(Cc3cccnc3)nc2n1 [Example 16, 5-tert-Butyl-7-(3,3-difluoro-pyrrolidin-1-yl)-2-pyridin-3-ylmethyl-2H-[1,2,3]triazolo[4,5-d]pyrimidine] | – | – | > 10000 | 3.9 |
| CC(C)(C)c1nc(N2CCC(F)(F)C2)c2nn(Cc3ccncc3)nc2n1 [Example 17, 5-tert-Butyl-7-(3,3-difluoro-pyrrolidin-1-yl)-2-pyridin-4-ylmethyl-2H-[1,2,3]triazolo[4,5-d]pyrimidine] | – | – | > 10000 | 0.8 |
| CC(C)(C)c1nc(N2CCC(F)(F)C2)c2nn(CC(F)(F)F)nc2n1 [Example 18, 5-tert-Butyl-7-(3,3-difluoro-pyrrolidin-1-yl)-2-(2,2,2-trifluoro-ethyl)-2H-[1,2,3]triazolo[4,5-d]pyrimidine] | – | – | > 10000 | 1.4 |
| CC(C)(C)c1nc(N2CCC(F)(F)C2)c2nn(Cc3cc(F)c(F)cc3Cl)nc2n1 [Example 19, 5-tert-Butyl-2-(2-chloro-4,5-difluoro-benzyl)-7-(3,3-difluoro-pyrrolidin-1-yl)-2H-[1,2,3]triazolo[4,5-d]pyrimidine] | – | – | > 10000 | 2.2 |
| CC(C)(C)c1nc(N2CCC(F)(F)C2)c2nn(Cc3c(F)ccc(F)c3Cl)nc2n1 [Example 20, 5-tert-Butyl-2-(2-chloro-3,6-difluoro-benzyl)-7-(3,3-difluoro-pyrrolidin-1-yl)-2H-[1,2,3]triazolo[4,5-d]pyrimidine] | – | – | 34 | 0.2 |
| CC(C)(C)c1nc(N2CCC(F)(F)C2)c2nn(Cc3ccccc3Br)nc2n1 [Example 21, 2-(2-Bromo-benzyl)-5-tert-butyl-7-(3,3-difluoro-pyrrolidin-1-yl)-2H-[1,2,3]triazolo[4,5-d]pyrimidine] | – | – | 183 | 0.1 |
| CC(C)(C)c1nc(N2CCC(F)(F)C2)c2nn(Cc3ccccc3C(F)(F)F)nc2n1 [Example 22, 5-tert-Butyl-7-(3,3-difluoro-pyrrolidin-1-yl)-2-(2-trifluoromethyl-benzyl)-2H-[1,2,3]triazolo[4,5-d]pyrimidine] | – | – | > 10000 | 0.2 |
| COc1ccccc1Cn1nc2nc(C(C)(C)C)nc(N3CCC(F)(F)C3)c2n1 [Example 23, 5-tert-Butyl-7-(3,3-difluoro-pyrrolidin-1-yl)-2-(2-methoxy-benzyl)-2H-[1,2,3]triazolo[4,5-d]pyrimidine] | – | – | 86 | 0.2 |
| CC(C)(C)c1nc(N2CCC(F)(F)C2)c2nn(Cc3ccccc3OC(F)(F)F)nc2n1 [Example 24, 5-tert-Butyl-7-(3,3-difluoro-pyrrolidin-1-yl)-2-(2-trifluoromethoxy-benzyl)-2H-[1,2,3]triazolo[4,5-d]pyrimidine] | – | – | > 10000 | 0.4 |
| CC(C)(C)c1nc(N2CCC(F)(F)C2)c2nn(Cc3ccccc3C#N)nc2n1 [Example 25, 2-[5-tert-Butyl-7-(3,3-difluoro-pyrrolidin-1-yl)-[1,2,3]triazolo[4,5-d]pyrimidin-2-ylmethyl]-benzonitrile] | – | – | 205 | 0.1 |
| CC(C)(C)c1nc(N2CCC(F)(F)C2)c2nn(Cc3cccc(F)c3Cl)nc2n1 [Example 30, 5-tert-Butyl-2-(2-chloro-3-fluoro-benzyl)-7-(3,3-difluoro-pyrrolidin-1-yl)-2H-[1,2,3]triazolo[4,5-d]pyrimidine] | – | – | – | 0.7 |
| CC(C)(C)c1nc(N2CCC(F)(F)C2)c2nn(Cc3cc(F)ccc3Cl)nc2n1 [Example 31, 5-tert-Butyl-2-(2-chloro-5-fluoro-benzyl)-7-(3,3-difluoro-pyrrolidin-1-yl)-2H-[1,2,3]triazolo[4,5-d]pyrimidine] | – | – | – | 0.5 |
| CC(C)(C)c1nc(N2CCC(F)(F)C2)c2nn(C3COC3)nc2n1 [Example 32, 5-tert-Butyl-7-(3,3-difluoro-pyrrolidin-1-yl)-2-oxetan-3-yl-2H-[1,2,3]triazolo[4,5-d]pyrimidine] | – | – | – | 19 |
